The source of these data is patent US9708312B2, “Dihydropyrimidinoisoquinolinones and pharmaceutical compositions thereof for the treatment of inflammatory disorders (GPR84 antagonists)” (GALAPAGOS NV, priority 2012, dated 2017).

SMILES strings stand for the structures.

Experiment [1] addresses T1, GPR84 (Homo sapiens, UniProt Q9NQS5).
T1 construct: expressed in transfected cells
The settings on record: literature reports; cited from earlier work.

The subject of experiment [2] is RAW264.7 murine macrophage-like cells. The following applies: RAW264.7 cells stimulated with LPS; cited from earlier work.
Experiment [3] addresses T1, GPR84. Description: GPR84 [35S]GTPγS binding assay, Tris buffer (alternative). The class given is biochemical. The settings on record: 3,3′ di indolylmethane at EC80, membranes from stable cell line over expressing GPR84, read-out: Alternative GPR84 assay GTPγS IC50 (GPR84-2). How it is done:
1.1. Cell Based Assay: GTp-γ S Binding Assay.
The following assay can be used for determination of GPR84 activation. The [^35S]GTPγS binding assay measures the level of G protein activation following agonist occupation of a GPCR, by determining the binding of the non-hydrolysable analog [^35S]GTPγS to Gα subunits.
Alternatively, the assay is performed in a 96 well plate where the following reagents are added. First 50 μL compound is added into the assay plate, followed by addition of 20 μL 3,3′ di indolylmethane at EC80 concentration (concentration which gives 80% of the activity of GPR84). In a last step, 30 μL of a mixture consisting of membranes-GTPγS-SpA beads is added [mixture consists of 20 μg/well membranes derived from stable cell line over expressing GPR84 (membranes are pre-incubated with 0.1 μM GDP for 15 min at 4° C.), 0.1 nM [^35S]GTPγS (Perkin Elmer, NEG030) and 0.5 mg/well PVT-WGA SpA beads (Perkin Elmer, RPNQ0001)]. All components are diluted in assay buffer containing 20 mM Tris pH 7.5; 5 mM MgCl2; 250 mM NaCl; 0.05% BSA; 75 ug/mL saponin Reactions are incubated for 90 min at room temperature followed by centrifugation at 2000 rpm during 15 min. Plates are read on a Topcount reader (Perkin Elmer) immediately after centrifugation (readout time, 1 min/well).
For orientation: GTPγS resists hydrolysis and so accumulates on activated G proteins.

Experiment [4] deals with human neutrophils. Kind of experiment: Human neutrophil migration assay (embelin-induced chemotaxis). The following applies: Neutrophil; neutrophils from human buffy coats; embelin at EC80. The experiment is classed as cell-based. The procedure, abridged: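 Neutrophils freshly isolated from human buffy coats were preincubated with compound for 30 min at 37 °C. They then migrated 1 h at 37 °C through 5.0 μm transwell membranes toward embelin at EC80, with compound present in both compartments. Migrated cells in the receiver well were quantified by ATPlite luminescence.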

T1 sequence (Q9NQS5 whole entry): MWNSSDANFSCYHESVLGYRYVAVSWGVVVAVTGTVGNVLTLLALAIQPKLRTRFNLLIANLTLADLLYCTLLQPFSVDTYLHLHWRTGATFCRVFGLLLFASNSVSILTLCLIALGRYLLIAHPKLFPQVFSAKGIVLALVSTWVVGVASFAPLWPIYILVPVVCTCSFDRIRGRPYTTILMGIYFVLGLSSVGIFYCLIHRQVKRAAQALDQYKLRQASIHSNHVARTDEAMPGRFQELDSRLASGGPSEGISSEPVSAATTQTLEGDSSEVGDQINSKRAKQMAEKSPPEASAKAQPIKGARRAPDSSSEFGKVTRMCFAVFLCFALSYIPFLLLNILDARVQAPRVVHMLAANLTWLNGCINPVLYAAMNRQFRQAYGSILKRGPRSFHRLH

In the case of `CCCCCCCCNc1cc(=O)[nH]c(=O)[nH]1` [6-n-octylaminouracil], in experiment [1], the GPR84 agonist activity result was “some GPR84 agonist activity”.
Turning to `CCCCCCCCCCCC(=O)O` [lauric acid], the “secretion of interleukin-12 p40 subunit (IL-12 p40)” value (shortened to “secretion”) in experiment [2] is on record as “dose dependently increased”.
Consider `CCCCCCCCCC(=O)O` [capric acid], for which the “secretion” value in experiment [2] is given as “dose dependently increased”.
Take `c1ccc2c(Cc3c[nH]c4ccccc34)c[nH]c2c1` [3,3′-diindolylmethane]: the GPR84 agonist activity entry in experiment [1] is given as “some GPR84 agonist activity”.
In general, IC50 refers to the concentration that inhibits the measured activity by half. For `O=c1nc(OCC2COc3ncccc3O2)cc2n1CCc1cc(C#Cc3cccnc3)ccc1-2` (stereo not drawn) [compound 131, 2-(2,3-dihydro-[1,4]dioxino[2,3-b]pyridin-2-ylmethoxy)-9-pyridin-3-ylethynyl-6,7-dihydro-pyrimido[6,1-a]isoquinolin-4-one], the IC50 is 100 to 500 nM in experiment [3] and 0.01 to 100 nM in experiment [4].
For `CCCCCCCCCCC(=O)O` [undecanoic acid], the “secretion” value in experiment [2] is “dose dependently increased”.
With `O=c1nc(OCC2COc3ncccc3O2)cc2n1CCc1cc(OCc3ccncc3)ccc1-2` (stereo not drawn) [compound 122, 2-(2,3-Dihydro-[1,4]dioxino[2,3-b]pyridin-2-ylmethoxy)-9-(pyridin-4-ylmethoxy)-6,7-dihydro-pyrimido[6,1-a]isoquinolin-4-one], the IC50 in experiment [3] and in experiment [4] was 0.01 to 100 nM each time.
